# Assay results published in patent US11382871B2 (BRIU GmbH, priority 2012, dated 2022).
# Where two headings read alike, the source gives them in different places.
# What was measured:
# [1] = compared with curcumin; cited from earlier work
# cell death = settings: compared with curcumin; cited from earlier work
# [2] = compared with Cisplatin; cited from earlier work
# [3] = compared with curcumin; cited from earlier work; remark: listed apart in the source
# IKK = settings: cited from earlier work
# tumor = settings: compared with Cisplatin; cited from earlier work
# [4] = cited from earlier work; for Solubility: solvents as named in the cell, in water, hexane, ether
# plasma protein = test: Behaviour of curcumin in the blood stream (plasma protein binding); assay type: in vitro ADME; settings: higher physiological pH of blood
# Text: Since the hydroxyl groups are present in undissociated form when the pH is acidic, the curcuminoids' stability is greater in this environment.
structure (smiles),measurement,setting,value
Cl.O=C1/C(=C/c2ccccc2F)CNC/C1=C\c1ccccc1F [EF-24],Potency relative to curcumin,[1],more potent than curcumin
same,Potency in inducing cell death relative to curcumin,cell death,10 times
same,Potential of inducing adverse effects,[2],significantly lower potential of inducing adverse effects
same,Bioavailability,[3],considerably higher bioavailability
same,IKK inhibition,IKK,IKK inhibitor
same,Effectiveness in anti-tumor screening,tumor,more effective than Cisplatin
"O=C(/C=C/c1ccc(O)cc1)CC(=O)/C=C/c1ccc(O)cc1 [Bisdemethoxy-CUR, Bis-4-hydroxycinnamoyl methane]",Solubility,[4],"Insoluble in water, hexane, ether;"
"COc1cc(/C=C/C(=O)CC(=O)/C=C/c2ccc(O)cc2)ccc1O [Demethoxy-CUR, 4-Hydroxycinnamoyl feruloyl methane]",Solubility,[4],"Insoluble in water, hexane, ether;"
"COc1cc(/C=C/C(=O)CC(=O)/C=C/c2ccc(O)c(OC)c2)ccc1O [curcumin, Diferuloylmethane]",Plasma protein binding on entering the blood stream,plasma protein,binds to plasma protein
same,Solubility,[4]; listed as CUR,"Insoluble in water, hexane, ether;"
same,Solubility in water,[4]; water,insoluble in water
